Test results from patent US4138480A, “Novel anthracycline glycosides and methods of preparing the same” (priority 1976, dated 1979).
“Also recorded” adds a separate entry of the source.

Legend:
[1] = target: T1, ATPase sodium-potassium dependent enzyme (Na-K ATPase) (Oryctolagus cuniculus, UniProt Q9N0Z6); assay: Activity of the ATPase Na-K dependent enzyme isolated from rabbit heart; type: biochemical
T1 construct: isolated from rabbit heart; from tissue; host or cells: rabbit heart
Source text: (§1) From these facts, it can be deduced, on the basis of the results of Table I as well, that the metallic derivative of doxorubicin formed with the metal proportion 2:1 or higher, lacks the inhibiting effect on the Na-K ATPase, that is to say, they would lack cardiotoxicity. […] The remaining chelates described herein may be expected to behave similarly. […] The compounds have the structure depicted in Formula I wherein R is as in Formula II and R1 is as given.

[2] = test system: leukemia 1210 mouse cells; assay: Inhibition of DNA synthesis of leukemia 1210 mouse cells; type: cell-based; conditions: read-out: Percent of Inhibition of DNA Synthesis
[3] = Toxicity: survivors after one intraperitoneal injection in mice; conditions: mouse, in vivo, ip
Method: The drugs were administered by only one intraperitoneal injection to groups of ten mice and the numbers of survivors were recorded after eight days.

[4] = test system: leukemia P-338 of the mouse; assay: Therapeutic activity in leukemia P-338 of the mouse; type: in vivo; conditions: 0 mg/kg 11 days
[5] = test system: leucocytes; assay: Hematological toxicity, leucocyte count; type: in vivo; conditions: day 7, day 0 4.700
[6] = Passage of hematoencephalic and intestinal barriers; conditions: in vivo
[7] = cumulative doses; cited from earlier work
[8] = test system: rabbit electrocardiogram; assay: Electrocardiographic alterations after intravenous injection to the rabbit
[9] = test system: spleen weight and immunocompetent cells; assay: Comparative testing of immunosuppressive properties (spleen weight, immunocompetent cells)
[10] = target: Na-K ATPase (Oryctolagus cuniculus, UniProt Q9N0Z6); assay: 50% inhibition of Na-K ATPase by doxorubicin analogs; type: biochemical; conditions: read-out: Concentration for 50% Inhibition NaK ATPase
Source text: as §1

[11] = read-out: Percent of the ATPase Na-K Dependent Activity

With `COc1cccc2c1C(=O)c1c(O)c3c(c(O)c1C2=O)C[C@@](O)(C(=O)CO)C[C@@H]3O[C@H]1C[C@H](N)[C@H](O)[C@H](C)O1` [Doxorubicin] the “effect of calcium on ATPase inhibition” value [1] was “counteracted by calcium”, the “inhibition of Na-K ATPase, in words” value [1] was “strong inhibitor; also recorded: potent inhibitor” and the activity at 10 pM [1, 11] was 40%. For the same compound, the activity at 0.001 µM [1, 11] was 25%, the activity at 0.1 µM [1, 11] was 25% and the activity at 10 µM [1, 11] was 25%. It also gave an activity at 100 fM [1, 11] of 65%, an inhibition at 3 µM ([2]; 3 μM) of 60% and an inhibition at 5 µM ([2]; 5 μM) of 68%. For the same compound, the inhibition at 7.5 µM ([2]; 7.5 μM) was 75%, the inhibition at 10 µM ([2]; 10 μM) was 90% and the survival at 192 h ([3]; 10 mg/kg) was 100%. For the same compound, the survival at 192 h ([3]; 20 mg/kg) was 60%, the survival at 192 h ([3]; 30 mg/kg) was 0% and the survival at 192 h ([3]; 40 mg/kg) was 0%. The survival at 192 h ([3]; 50 mg/kg) was 0%, the survival at 192 h ([3]; 60 mg/kg) was 0% and the “Days of Mean Survival of Leukemic Mice” value ([4]; 4 mg/kg i.p.) was 50 days. The “Days of Mean Survival of Leukemic Mice” value ([4]; 8 mg/kg i.p.) was 48 days, the “Days of Mean Survival of Leukemic Mice” value ([4]; 12 mg/kg i.p.) was 42 days and the “Days of Mean Survival of Leukemic Mice” value ([4]; 24 mg/kg i.p.) was 6 days. The “Days of Mean Survival of Leukemic Mice” value ([4]; 36 mg/kg i.p.) was 4 days, the “Leucocyte Count/mm^3” value ([5]; 10 mg/kg) was 3.300 /mm^3 and the “Leucocyte Count/mm^3” value ([5]; 20 mg/kg) was 2.400 /mm^3. The “passing both hematoencephalic and intestinal barriers” value [6] was “does not to an effective degree”, the “cumulative dose attended by severe, oftentimes lethal cardiotoxicity” value [7] was greater than 500 mg. per square meter and the “alterations of the electrocardiogram, in words” value [8] was “very intense”. For the same compound, the “immunosuppression (spleen weight and immunocompetent cells)” value [9] was “depressed spleen weight and immunocompetent cells to a significant extent”.
Work on `CCCCC(=O)NN=C(C)[C@]1(O)Cc2c(O)c3c(c(O)c2[C@@H](O[C@H]2C[C@H](N)[C@H](O)[C@H](C)O2)C1)C(=O)c1c(OC)cccc1C3=O` [NSC-211391] yielded an IC50 [10] of 1 µM.
With `COc1cccc2c1C(=O)c1c(O)c3c(c(O)c1C2=O)C[C@@](O)(C(CO)=NNC(=O)c1ccccc1)C[C@@H]3O[C@H]1C[C@H](N)[C@H](O)[C@H](C)O1` [NSC-216071] the IC50 [10] was 10 µM.
Compound `COc1ccc(C(=O)NN=C(C)[C@]2(O)Cc3c(O)c4c(c(O)c3[C@@H](O[C@H]3C[C@H](N)[C@H](O)[C@H](C)O3)C2)C(=O)c2c(OC)cccc2C4=O)cc1` [NSC-219976] has an IC50 [10] of 0.001 µM.
`COc1cccc2c1C(=O)c1c(O)c3c(c(O)c1C2=O)C[C@@](O)(C(C)=NNC(=O)c1ccc(O)cc1)C[C@@H]3O[C@H]1C[C@H](N)[C@H](O)[C@H](C)O1` [NSC-221264] showed an IC50 [10] of 0.0001 µM.
Work on `COc1cccc2c1C(=O)c1c(O)c3c(c(O)c1C2=O)C[C@@](O)(C(C)=NNC(=O)c1ccc([N+](=O)[O-])cc1)C[C@@H]3O[C@H]1C[C@H](N)[C@H](O)[C@H](C)O1` [NSC-221265] yielded an IC50 [10] of 10 µM.
`COc1cccc2c1C(=O)c1c(O)c3c(c(O)c1C2=O)C[C@@](O)(/C(C)=N/NC(=O)c1ccc(Cl)c(Cl)c1)C[C@@H]3OC1CC(N)C(O)C(C)O1` (stereo partly shown) [NSC-221266] gave an IC50 [10] of 1 µM.
In the case of `COc1cccc2c1C(=O)c1c(O)c3c(c(O)c1C2=O)C[C@@](O)(C(C)=NNC(=O)c1ccc(N(C)C)cc1)C[C@@H]3O[C@H]1C[C@H](N)[C@H](O)[C@H](C)O1` [NSC-227013], the IC50 [10] is reported as 0.0001 µM.
With `CCc1ccc(C(=O)N/N=C(\C)[C@]2(O)Cc3c(O)c4c(c(O)c3[C@H](O[C@H]3C[C@H](N)[C@H](O)[C@H](C)O3)C2)C(=O)c2c(OC)cccc2C4=O)cc1` [NSC-233854] the IC50 [10] was 0.1 µM.
`CCCOc1ccc(C(=O)NN=C(C)[C@]2(O)Cc3c(O)c4c(c(O)c3[C@@H](O[C@H]3C[C@H](N)[C@H](O)[C@H](C)O3)C2)C(=O)c2c(OC)cccc2C4=O)cc1` [NSC-234740] gave an IC50 [10] of 0.01 µM.
In the case of `COc1cccc2c1C(=O)c1c(O)c3c(c(O)c1C2=O)CC(O)(/C(C)=N/NC(=O)c1ccc(-c2ccccc2)cc1)CC3OC1CC(N)C(O)C(C)O1` (stereo not shown) [NSC-236672], the IC50 [10] is reported as 0.001 µM.
Compound `COC(=O)[C@]1(O)Cc2c(O)c3c(c(O)c2[C@@H](O[C@H]2C[C@H](N)[C@H](O)[C@H](C)O2)C1)C(=O)c1c(OC)cccc1C3=O` [NSC-237638] has an IC50 [10] of 0.001 µM.
`COc1cccc2c1C(=O)c1c(O)c3c(c(O)c1C2=O)C[C@@](O)(/C(CO)=N/NC(=O)c1ccc(Cl)c(Cl)c1)C[C@@H]3OC1CC(N)C(O)C(C)O1` (stereo partly shown) [NSC-237672] showed an IC50 [10] of 10 µM.
